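96-well plates; 48 h exposure; 5 concentrations. Endpoints by linear interpolation between flanking doses. Not reached: highest tested concentration assigned. GI50: concentration for 50% inhibition of growth. TGI denotes the concentration required for complete inhibition of growth.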
Assays:
Experiment in all cases: growth of human tumour cells (NCI), 48 h
[1] = tested on: DMS 114 small cell lung
[2] = tested on: SK-MEL-5 melanoma
[3] = tested on: UACC-257 melanoma
[4] = tested on: 786-0 renal
[5] = tested on: TK-10 renal
[6] = tested on: EKVX NSCLC
[7] = tested on: HCT-116 colon
[8] = tested on: M19-MEL melanoma
[9] = tested on: MDA-MB-435
[10] = tested on: DU-145 prostate

Compound	TGI [1] [µM]	TGI [2] [µM]	TGI [3] [µM]	TGI [4] [µM]	TGI [5] [µM]	TGI [6] [µM]	TGI [7] [µM]	TGI [8] [µM]	GI50 [7] [µM]	GI50 [8] [mM]	GI50 [1] [mM]	GI50 [2] [µM]	GI50 [3] [µM]	GI50 [4] [µM]	GI50 [5] [µM]	GI50 [6] [µM]	GI50 [9] [nM]	TGI [9] [µM]	GI50 [10] [nM]	TGI [10] [µM]
CCOc1ccc(NC(=O)CCC(=O)NN)cc1	> 100	> 100	> 100	> 100	> 100	> 100	–	–	–	–	–	–	–	–	–	–	–	–	–	–
OC1C2C=CCC1CCC2 (stereo unspecified)	> 100	> 100	> 100	> 100	> 100	> 100	> 100	> 100	–	–	–	–	–	–	–	–	–	–	–	–
NC(=O)CCC(NC(=O)C(F)(F)F)C(=O)O (stereo unspecified)	> 100	> 100	> 100	> 100	> 100	> 100	> 100	> 100	–	–	–	–	–	–	–	–	–	–	–	–
CCOC(=O)CNC(=O)C(CSC(=O)N(C)O)NC(=O)CCC(N)C(=O)O (stereo unspecified)	–	> 2000	> 2000	> 2000	> 2000	> 2000	–	> 2000	> 2000	> 2	> 2	> 2000	> 2000	> 2000	> 2000	> 2000	–	–	–	–
CCOC(=O)C1(Cc2ccc3ccccc3c2)CCCCCN1 (stereo unspecified)	87.4	–	–	34.2	> 100	> 100	–	93.8	–	–	–	–	–	–	–	–	–	–	–	–
Cc1cc(C)c2[s+]snc2c1	–	> 100	> 100	> 100	> 100	> 100	> 100	> 100	–	–	–	–	–	–	–	–	–	–	–	–
C[N+]1=c2c3cccc4cccc(c(=O)n2CCC1)c43	38.7	32.5	32.9	> 100	56.4	65	43.6	35.8	–	–	–	–	–	–	–	–	–	–	–	–
CC1=NN(c2ccccc2)C(=O)C1N=Nc1ccc(Br)c(C)c1 (stereo unspecified)	> 100	> 100	> 100	> 100	> 100	> 100	> 100	> 100	–	–	–	–	–	–	–	–	–	–	–	–
Nn1c(N=Nc2c(O)[nH]c3ccccc23)n[nH]c1=S	> 100	–	> 100	> 100	> 100	> 100	> 100	> 100	–	–	–	–	–	–	–	–	–	–	–	–
CP(C)C.[Ag][I]	> 100	46.4	> 100	> 100	> 100	> 100	> 100	> 100	–	–	–	–	–	–	–	–	–	–	–	–
Cc1cc2c(C(C)C)c(O)c(O)c(C=O)c2c(O)c1-c1c(C)cc2c(C(C)C)c(O)c(O)c(C=O)c2c1O (tested in a mixture with another compound)	–	2.95	4.12	3.29	2.93	3.18	1.61	–	0.455	–	–	1.54	1.79	0.819	0.546	0.473	1860	5.19	1120	3.07
N#CC[C@H](C1CCCC1)n1cc(-c2ncnc3[nH]ccc23)cn1	–	49	> 100	> 91.3	> 100	> 83.7	> 100	–	20.2	–	–	17.2	44.2	12.9	13.2	14.9	26400	> 93.2	19300	> 100
Cc1cc2nc3c4ccccc4n(CCN(C)C)c3nc2cc1C	–	3.19	5.16	12.2	14.1	7.32	11.3	–	0.488	–	–	1.7	1.94	1.97	2.98	2.23	1610	3.47	2070	11.8
N#CSCC(=O)c1ccc(Cl)cc1	–	14.7	> 28.6	21.3	13.6	26.5	12.7	–	3.09	–	–	2.31	5.64	4.96	3.21	4.99	2280	6.37	2540	6.15
O=C(CC1(O)C(=O)Nc2c(Cl)ccc(Cl)c21)c1ccc(C2CC2)cc1 (stereo unspecified)	–	13.8	24.7	16.9	29.1	20.7	6.05	–	0.375	–	–	1.37	2.48	1.78	11.9	2.15	88.2	0.272	1630	17.8
CN1CCN(c2ccc3nc4c(nc3c2C(F)(F)F)C(=O)c2ncccc2C4=O)CC1	–	2.76	2.4	4.9	5.3	3.87	4.51	–	1.47	–	–	1.43	0.873	2.02	2.21	1.79	178	0.344	1230	2.6
Cc1cc2c(cc1C)[n+]([O-])c(-c1c(Cl)cccc1Cl)c(N)[n+]2[O-]	98.7	41.7	83.6	> 100	> 100	> 100	–	> 100	–	–	–	–	–	–	–	–	–	–	–	–
Brc1ccc(Br)nn1	–	3.85	3.89	4.75	6.37	24.7	2.84	–	1.48	–	–	1.49	1.72	2.11	2.56	8.17	1750	3.55	3730	13.4
CNCCOc1nc2c3cnccc3cc(-c3cc(OC)c(OC)c(OC)c3)c2c2ccncc12	–	0.144	0.728	0.175	0.366	0.432	0.175	–	< 0.0147	–	–	0.0288	0.13	0.0194	0.0686	0.0782	115	0.327	22	0.167
Cc1cccc(N=C2NC(=O)C(CC(=O)Nc3ccc(Cl)cc3C)S2)c1 (stereo unspecified)	> 100	> 100	> 100	> 100	> 100	> 100	–	> 100	–	–	–	–	–	–	–	–	–	–	–	–

Source: PubChem BioAssay (NCI)
